Experimental data: article PMC11571215, “Optimization of Antiproliferative Properties of Triimine Copper(II) Complexes” (Journal of Medicinal Chemistry, 2024)

Tests used:
[1] = system: HCT116-DoxR 3D spheroids; test: MTS cell viability assay in 3D tumor spheroids; assay type: cell-based, human; conditions: spheroids with 6 days of growth, 48 h of exposure
Description: The research on tumor microenvironment (TME) has recently been gaining attention due to its important role in tumor growth, progression, and response to therapy.[57]−[60] Because of this, the development of 3D cancer models that mimic the interactions in the TME and the tumor structure and complexity is of great relevance to cancer research and drug development. […] The MTS assay was performed inHCT116-DoxR 3D spheroids with 6 days of growth (Figure S15 in ESI), followed by exposure to the complexes for 48 h. The results of cell viabilities and respective relative IC50 values calculated are provided in Figure 4 and Table 5, respectively.
HCT116-DoxR cells were seeded at 5 × 10^4 cells/mL in super low Attachment 96-well plates (NunclonSphera U-Shaped-Bottom Microplate, Thermo Fisher Scientific, Waltham, MA, USA) and incubated at 37 °C in a humidified atmosphere with 5% (v/v) CO2, to allow spheroids formation and growth.[60],[105] To perform the cell viability study, two methods were used: the MTS assay and the CellTox assay.
For MTS assay, HCT116DoxR spheroids grown for 6 to 8 days were used. […] The spheroids were further incubated for 4 h and subsequently transferred the medium to a 96-well flat-bottom plate for analysis using the Tecan Infinite M200 microplate reader (Tecan, Männedorf, Switzerland).

[2] = system: HCT116-DoxR cells; test: Mitochondrial membrane potential (JC-1, flow cytometry); assay type: cell-based, human; conditions: 48 h; complexes at IC50, Dox 6 μM, Cis 5 μM; normalized to DMSO
Description: Changes in membrane potential can be measured and represent an essential parameter, indicating the functional state of the mitochondria. For this analysis, the lipophilic cationic probe 5,5′,6,6′-tetrachloro-1,1′,3,3′-tetraethylbenzimidazolylcarbocyanine iodide (JC-1) was used, allowing the evaluation of depolarization or hyperpolarization of the mitochondrial membrane.[72] In healthy cells, JC-1 accumulates inside the electronegative mitochondria as aggregates (red fluorescence) when the membrane potential is positively charged (hyperpolarized).[71] However, when depolarization of the mitochondrial membrane potential occurs, the JC-1 probe will accumulate outside of the mitochondria in its monomeric form (green fluorescence), therefore causing a decrease in the ratio of JC-1 aggregate/monomer fluorescence intensity.[61],[71] […] Subsequently, the cells were stained with the JC-1 probe and subjected to flow cytometry analysis to confirm potential alterations in the mitochondrial membrane potential induced by the complexes. […]
The mitochondrial membrane potential (ΔΨM) was evaluated by using the JC-1 Mitochondrial Membrane Potential Assay Kit (Abnova Corporation, Walnut, California, USA). […] The samples were then analyzed in the Attune Acoustic Focusing Flow Cytometer (Life Technologies, Carlsbad, CA, USA) and results were processed with Attune Cytometric software.

[3] = system: HCT116-DoxR cells; test: Cellular senescence (beta-galactosidase, flow cytometry); assay type: cell-based, human; conditions: 48 h at IC50, vs 0.1% DMSO
Description: The percentage of senescent cells was assessed using the Senescence Assay Kit (Abcam), enabling the quantification of beta-galactosidase activity through flow cytometry. […] A 0.1% (v/v) DMSO solution served as vehicle control, and Dox and Cis were used as positive controls.
In this assay, a senescence assay kit (Beta Galactosidase, Fluorescence) (ab228562; Abcam, UK) was used. HCT116-DoxR cells were seeded in 24-well plates at a density of 5 × 10^5 cells/well and incubated for 24 h, at the conditions mentioned before. […] Additionally, 0.1% (v/v) DMSO was used as a vehicle control, and 6 μM Dox and 5 μM Cis were used as positive controls. At the end of the incubation period, the medium was removed, and 500 μL of DMEM with 1.5 μL of Senescence dye was added to each well. The plates were incubated for an additional 1–2 h at 37 °C. Subsequently, the well contents were removed, and the cells were washed twice with Wash Buffer (provided by the kit). The cells were trypsinized with TrypLE Express and then centrifuged for 5 min at 500 × g. After centrifugation, the cells were washed with the wash buffer, centrifuged, and resuspended again in 500 μL of Wash Buffer. The samples were subsequently analyzed by an Attune acoustic focusing flow cytometer (Life Technologies, Carlsbad, USA), and the results were analyzed by the respective software (Attune Cytometric software).

[4] = system: calf-thymus DNA (ctDNA); test: UV-vis absorption titration with ctDNA; assay type: binding; conditions: hyperchromic effect at ∼350 nm
Description: For both Cu(II) complexes, the addition of DNA results in a gradual increase in the absorption intensity of the band at ∼350 nm, while the band position remains the same (Figure 14).
These values fall in the range reported previously for related Cu(II) complex with 4′-((naphthalen-2-yl)methoxy)-2,2′:6′,2″-terpyridine[21] that was proposed as an “outside binder”.
Absorption titration experiments were conducted by maintaining the complex concentration constant (25 μM) and varying the concentration of ctDNA (0–100 μM). Blank ctDNA samples were used as a reference.

[5] = Stability in solution by UV-vis spectrophotometry; assay type: physicochemical; conditions: c = 25 μM, spectra every 4 h for 72 h
Description: The stability of Cu1a-d and Cu2a-d was assessed using a spectrophotometric method. Absorption spectra of the Cu(II) complexes were collected every 4 h for 72 h in DMSO and phosphate-buffered saline (PBS) solutions (c = 25 μM) (see Figure S6 and Table S9 in ESI). The diluted solutions in a water-based medium were prepared from concentrated (50 mM) stock solutions in DMSO. […] In contrast, Cu(II) complexes with dtpy-based ligands (Cu2a–d) decomposed within a few minutes in DMSO, showing UV–vis spectra almost overlapping with those of the free ligands (Figure S7). […] In PBS, compounds Cu2a–d tended to aggregate rapidly due to the release of the organic ligand, which is insoluble in water.
Infrared spectra were performed with the KBr technique on a Nicolet iS5 FT-IR spectrophotometer in the range of 4000–400 cm^–1. Elemental analyses (C, H, N) were recorded on a Perkin–Elemer CHN–2400 analyzer. HR-ESI-MS analyses were performed on a maXis Impact Q-TOF mass spectrometer (Bruker Daltonics) or a Xevo G2 Q-TOF mass spectrometer (Waters Corporation, USA), both with an ESI ion source operating in positive-ion mode. Samples were diluted in LC-MS grade acetonitrile. The accurate mass and composition for the molecular ion adducts were calculated using Data Analysis 4.1 software (Bruker, Germany) or MassLynx software (Waters). […] The eluted compounds were monitored in the range 190–400 nm. […]

[6] = system: pUC18 plasmid DNA (pDNA); test: Plasmid DNA interaction and cleavage (gel electrophoresis); conditions: 24 h; for pDNA cleavage / isoform change: 100 ng pUC18, 5–100 μM complex, 37 °C; for pDNA cleavage in presence of NaN3 scavenger: 50 μM complex + 50 μM NaN3, 37 °C; for pDNA cleavage in presence of H2O2: 50 μM complex + 100 μM H2O2, 37 °C
Description: The procedure involved exposing 100 ng of pDNA (pUC18) to increasing concentrations of complexes Cu1a and Cu1b (5, 25, 50, 75, and 100 μM), which were incubated at 37 °C for 24 h.
The sodium azide (NaN3) scavenger, capable of quenching singlet oxygen (^−1O2), was used for this purpose.[93] Additionally, hydrogen peroxide (H2O2) was employed as a well-known positive control for DNA cleavage through oxidative mechanisms in the presence of ROS.[71]
Experiments were conducted with 100 ng of pUC18 DNA incubated with increasing concentrations of Cu1a and Cu1b complexes (5, 25, 50, 75, and 100 μM) or in their absence (pUC18 only or with 0.1% DMSO (v/v), both negative controls). For this assay, positive control was included, containing pUC18 DNA (100 ng) previously incubated with the HindIII enzyme to linearize the plasmid in the last 2 h of incubation. […] Electrophoresis was performed in 0.8% (w/v) agarose gel (NZYtech) in TAE 1× buffer at a constant voltage of 70 V for 80 min. The electrophoresis gel image was acquired using the Gel Doc EZ Imager (Bio-Rad), and band quantification was performed using ImageJ software.
The pDNA (100 ng) was exposed to reactive oxygen species (ROS) scavenging agents, namely, sodium azide (NaN3) at 50 μM and hydrogen peroxide (H2O2) at 100 μM. […] Controls were also included where 100 ng of pUC18 was exposed to 0.1% (v/v) DMSO, and the activity of the HindIII restriction enzyme (linearized plasmid control) for 24 h. All the samples were adjusted to a final volume of 20 μL and incubated for 24 hs at 37 °C. […] The electrophoresis gel image was acquired in Gel Doc EZ Imager (Bio-Rad) and band quantification was performed using ImageJ software.

| SMILES | IC50 [1] | JC-1 red/green fluorescence ratio (aggregate/monomer) [2] | senescent cells [3] | mode of interaction with DNA [4] | stability/solubility in PBS [5] | pDNA cleavage / isoform change [6] | pDNA cleavage in presence of NaN3 scavenger [6] | pDNA cleavage in presence of H2O2 [6] |
| --- | --- | --- | --- | --- | --- | --- | --- | --- |
| [Cl][Cu-3]12([Cl])[n+]3ccccc3-c3cc(-c4cccc5ccccc45)cc([n+]31)-c1cccc[n+]12 [Cu1a] | 10.1 ± 0.22 µM | approximately 0.79 | increase in the percentage of senescent cells | nonintercalative interactions with DNA, most likely via groove binding | no solubility issues were observed | an increase in the circular form (N) was observed compared to negative control with the simultaneous decrease of the supercoiled isoform | an increase in the supercoiled isoform and a reduction in the nicked isoform | pDNA cleavage increased compared to H2O2 alone |
| [Cl][Cu-3]12([Cl])[n+]3ccccc3-c3cc(-c4ccc5ccccc5c4)cc([n+]31)-c1cccc[n+]12 [Cu1b] | 33.9 ± 0.4 µM | 0.88 | highest quantity of cells in senescence | nonintercalative interactions with DNA, most likely via groove binding | no solubility issues were observed | a decrease in supercoiled forms and an increase in the intensity of the circular isoform at concentrations of 25 and 50 μM | an increase in the supercoiled isoform and a decrease in the nicked isoform | a complete disappearance of pDNA isoforms is observed |
